Experimental data as given in US9732075B2, “Benzimidazole-proline derivatives” (IDORSIA PHARMACEUTICALS LTD, priority 2012, dated 2017).

Tests used:
human orexin-2 receptor = human orexin-2 receptor (Homo sapiens (Human), UniProt O43614); assay: In vitro assay: intracellular calcium measurements (FLIPR), antagonistic activity; assay type: cell-based; conditions: CHO cells expressing human orexin-2 receptor, orexin-A agonist, geometric mean, read-out: IC50 Ox2
In short: (§1)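 Dye-loaded CHO cells expressing either human orexin receptor are exposed to test antagonist for 120 min, then stimulated with orexin-A at 3 nM.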

human orexin-1 receptor = human orexin-1 receptor (Homo sapiens (Human), UniProt O43613); assay: as above; assay type: cell-based; conditions: CHO cells expressing human orexin-1 receptor, orexin-A agonist, geometric mean, read-out: IC50 Ox1
In short: as §1

Sequence of human orexin-1 receptor (O43613 whole entry): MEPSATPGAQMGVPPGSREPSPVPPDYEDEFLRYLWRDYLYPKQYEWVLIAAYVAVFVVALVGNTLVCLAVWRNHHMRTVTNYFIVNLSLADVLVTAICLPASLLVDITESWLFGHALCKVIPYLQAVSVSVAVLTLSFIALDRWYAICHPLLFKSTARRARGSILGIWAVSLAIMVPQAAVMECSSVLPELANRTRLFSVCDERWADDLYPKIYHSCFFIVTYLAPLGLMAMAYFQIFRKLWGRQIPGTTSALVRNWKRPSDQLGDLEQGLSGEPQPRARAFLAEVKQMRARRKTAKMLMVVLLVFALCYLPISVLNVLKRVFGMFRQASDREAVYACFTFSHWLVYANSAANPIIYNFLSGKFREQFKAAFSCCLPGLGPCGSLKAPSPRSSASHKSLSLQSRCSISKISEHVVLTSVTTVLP
Sequence of human orexin-2 receptor (O43614 whole entry): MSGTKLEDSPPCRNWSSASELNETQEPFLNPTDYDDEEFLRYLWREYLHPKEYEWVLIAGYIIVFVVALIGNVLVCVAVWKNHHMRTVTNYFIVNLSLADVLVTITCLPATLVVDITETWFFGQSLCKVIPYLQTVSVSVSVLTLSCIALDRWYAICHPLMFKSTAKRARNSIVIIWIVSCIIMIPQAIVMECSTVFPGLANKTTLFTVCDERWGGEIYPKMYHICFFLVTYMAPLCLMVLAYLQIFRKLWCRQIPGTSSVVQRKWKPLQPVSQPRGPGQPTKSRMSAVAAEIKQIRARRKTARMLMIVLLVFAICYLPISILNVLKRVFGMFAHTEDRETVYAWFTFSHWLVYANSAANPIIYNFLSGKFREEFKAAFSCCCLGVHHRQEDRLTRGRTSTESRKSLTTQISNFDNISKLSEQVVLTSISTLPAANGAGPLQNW

Structure (SMILES)	IC50 (human orexin-2 receptor) [nM]	IC50 (human orexin-1 receptor) [nM]
Cc1nc(C(=O)N2CC[C@H](C)[C@H]2c2nc3c(C(C)C)cccc3[nH]2)c(-c2cccc(Cl)c2)s1 [Ex. 4.25]	441	4
C=C1C[C@@H](c2nc3cc(C)c(C)cc3[nH]2)N(C(=O)c2cc(OC)c(OC)cc2-n2nccn2)C1 [Ex. 6.200]	10	58
Cc1nc(C(=O)N2C[C@@H](F)C[C@H]2c2nc3c(C)cccc3[nH]2)c(-c2ccccc2)s1 [Ex. 2.2]	317	1300
Cc1ccc(-n2nccn2)c(C(=O)N2C[C@H](F)C[C@H]2c2nc3c(C)cccc3[nH]2)c1 [Ex. 2.11]	124	69
Cc1ccc(-c2ccccc2F)c(C(=O)N2CCC[C@@]2(C)c2nc3cc(C)c(C)cc3n2C)c1 [Ex. 7.43]	42	24
COc1ccc2nc([C@@H]3CCCN3C(=O)c3cnc(C)nc3-c3cccc(Cl)c3)[nH]c2c1 [Ex. 1.29]	182	369
COc1ccc(-n2nccn2)c(C(=O)N2CCC[C@@]2(C)c2nc3cc(F)c(Br)cc3[nH]2)c1F [Ex. 5.132]	615	54
C=C1C[C@@H](c2nc3cc(C(F)(F)F)c(Cl)cc3[nH]2)N(C(=O)c2nc(C)sc2-c2ccc(C)c(C)c2)C1 [Ex. 6.142]	22	17
Cc1nc(C(=O)N2CC[C@H](C)[C@H]2c2nc3c(C)c(Cl)ccc3[nH]2)c(-c2ccc(F)cc2)s1 [Ex. 4.70]	404	0.6
CSc1cccc2nc([C@@H]3CCCN3C(=O)c3nc(C)sc3-c3ccc(Br)cc3)[nH]c12 [Ex. 1.60]	48	61
C=C1C[C@@H](c2nc3cc(C(C)(C)C)ccc3[nH]2)N(C(=O)c2c(C)cccc2-n2nccn2)C1 [Ex. 6.167]	25	573
C=C1C[C@@H](c2nc3cc(OC)ccc3[nH]2)N(C(=O)c2nc(C)sc2-c2ccc(Br)cc2)C1 [Ex. 6.22]	19	410
C=C1C[C@@H](c2nc3c(Cl)cccc3[nH]2)N(C(=O)c2nc(C)sc2-c2ccc(C)c(C)c2)C1 [Ex. 6.51]	3	8
COc1ccc(-c2ccccc2C(=O)N2CCC[C@@]2(C)c2nc3c(C)c(C)ccc3[nH]2)cc1 [Ex. 5.119]	29	30
CCn1c([C@]2(C)CCCN2C(=O)c2cc(C)ccc2-c2ccc(F)cc2)nc2cc(C)c(C)cc21 [Ex. 7.16]	21	8
CSc1ccc2[nH]c([C@@H]3CCCN3C(=O)c3nc(C)ccc3-n3cccn3)nc2c1 [Ex. 1.178]	96	2680
Cc1nc(C(=O)N2CCC[C@@]2(C)c2nc3c(C)c(Cl)ccc3[nH]2)c(-c2cccc(Cl)c2)s1 [Ex. 5.5]	5	3
COc1ccc(-c2sc(C)nc2C(=O)N2CCC[C@@]2(C)c2nc3cc(OC)c(OC)cc3[nH]2)cn1 [Ex. 5.77]	153	64
COc1cc2nc([C@@H]3[C@@H](C)CCN3C(=O)c3ncsc3-c3cccc(Cl)c3)[nH]c2cc1OC [Ex. 4.55]	7970	167
C[C@@]1(c2nc3cc(F)c(Br)cc3[nH]2)CCCN1C(=O)c1c(F)cccc1-n1nccn1 [Ex. 5.123]	304	146
Cc1nc(C(=O)N2CCCC2c2nc3c(C)c(Cl)ccc3[nH]2)c(-c2ccccc2)s1 (stereo not shown) [Ex. 1.133]	11	4
Cc1ccc(-n2nccn2)c(C(=O)N2CCC[C@@]2(C)c2nc3c(F)c(F)ccc3[nH]2)c1 [Ex. 5.27]	507	46
Cc1cc2nc([C@@H]3[C@@H](C)CCN3C(=O)c3ccccc3-n3nccn3)[nH]c2cc1C [Ex. 4.85]	43	7
C=C1C[C@@H](c2nc3cc(OC)ccc3[nH]2)N(C(=O)c2nccnc2-c2cccc(C)c2)C1 [Ex. 6.6]	52	477
Cc1ccc(-c2ccc3c(c2)OCO3)c(C(=O)N2CCC[C@@]2(C)c2nc3cc(C(F)(F)F)ccc3[nH]2)c1 [Ex. 5.198]	34	18
CSc1cccc2nc([C@@H]3CCCN3C(=O)c3nc(C)sc3-c3ccc(C)cc3)[nH]c12 [Ex. 1.66]	47	20
Cc1nc(C(=O)N2CC[C@H](C)[C@H]2c2nc3c(Cl)cccc3[nH]2)c(-c2ccc(F)c(F)c2)s1 [Ex. 4.126]	2380	43
COc1ccc(-n2nccn2)c(C(=O)N2CC[C@H](C)[C@H]2c2nc3cc(C)c(C)cc3[nH]2)c1 [Ex. 4.84]	58	8
COc1ccc(-n2nccn2)c(C(=O)N2C[C@H](OC)C[C@H]2c2nc3ccc(OC)cc3[nH]2)c1 [Ex. 3.20]	40	1860
